Data on two molecules can be found in patent US4105603A, “Peptides which effect release of hormones” (The Salk Institute for Biological Studies, priority 1977, dated 1978).

Test [1] relates to glucagon secretion. Nature of the test: In vivo bioassay: inhibition of glucagon release, portal vein plasma after i.v. peptide. The arrangement: species or system Sprague-Dawley-CD rats. The settings on record: rat, external jugular vein administration, somatostatin = 100. The method, then:
(§1) An investigation of the effect of somatostatin, dihydrosomatostatin, (as controls) and the peptides of the invention to inhibit the release of glucagon and insulin was made as follows:
(§2) In vivo Bioassay: Male Sprague-Dawley-CD rats weighing 180-200 g housed in temperature and humidity controlled quarters with 14h light and 10h dark (light 0700-[…]) were used in all experiments. Animals were fed a standard ration and tap water ad libitum. Experiments were carried out at least 5 days after arrival of rats from the supplier between the hours 1400 to 1600. After ether anesthesia, peptides or saline were administered in a volume of 0.2 ml. via the external jugular vein. Animals remained anesthetized until the time of blood collection from the portal vein. […]
(§3) Plasma was stored at -20° C for insulin and glucagon determinations. Insulin levels were determined by the method of Herbert et al, […]. […] Glucagon was determined by the method of Faloona and Unger, in Jaffe et al ed., Methods of Hormone Radioimmunoassay, Academic Press, New York, 1974, p. […] was determined by the glucose oxidase method, utilizing a Beckman Glucose Analyzer.
(§4) All experiments were carried on in a randomized block design. Following analysis of variance difference between treatments were determined by the multiple range tests of Dunnett and Duncan. Potency values were calculated from four or six point bioassays.

The subject of test [2] is rat anterior pituitary cells. Kind of test: In vitro bioassay: secretion of growth hormone by primary cultures of dissociated rat anterior pituitary cells. The settings on record: cultured rat anterior pituitary cells, somatostatin = 100. It counts as cell-based. Here is the method:
In vitro Bioassay: The effects of the various peptides of the invention were tested in vitro on the secretion of growth hormone by primary cultures of enzymatically dissociated rat anterior pituitary cells by the method of Vale et al., Endocrinology 91: p 562-571 (1972). The assay is made by treating pituitary glands removed from rats to separate cells therefrom. The cells are placed in culture dishes in Dulbecco's Modified Eagle Medium (Dulbecco et al., Virology, Vol. 8, p. 396, […]). Carbon dioxide gas and oxygen are supplied to the cell cultures which are maintained at 37° C for 4-5 days prior to use in the assay. Following media changes, cell cultures are incubated for a period of 4 hours and particular somatostatin peptides are added thereto. Radioimmunoassay analysis is used to determine the rate of growth hormone secretion which is expressed in nanograms per hour.
GH determinations were performed on tissue culture media utilizing the following reagents: NIAMDD rat GH standard (GH-RP-1), NIAMDD monkey anti-rat GH (GH-Serum-3), and highly purified rat GH for iodination.
as §4

Test [3] has as its system insulin secretion. Nature of the test: In vivo bioassay: inhibition of insulin release, portal vein plasma after i.v. peptide. Also noted: species or system Sprague-Dawley-CD rats. The note with it: rat, external jugular vein administration, somatostatin = 100. The method, then: as §1, §2, §3, §4

Non-standard residues stand in square brackets, D forms with d.

As to `C[C@H](N)C(=O)NCC(=O)N[C@H]1CSSC[C@@H](C(=O)O)NC(=O)[C@H](CO)NC(=O)[C@H]([C@@H](C)O)NC(=O)[C@H](Cc2ccccc2)NC(=O)[C@H]([C@@H](C)O)NC(=O)[C@H](CCCCN)NC(=O)[C@H](Cc2c[nH]c3ccccc23)NC(=O)[C@H](Cc2ccccc2)NC(=O)[C@H](Cc2ccccc2)NC(=O)[C@H](CC(N)=O)NC(=O)[C@H](CCCCN)NC1=O` [Somatostatin, somatostatin], the “percent effectiveness for inhibiting secretion of Glucagon, somatostatin taken as the base” value in test [1] was 100%. Also, the “percent effectiveness for inhibiting secretion of Growth Hormone, somatostatin taken as the base” value in test [2] was 100%. In test [3], the “percent effectiveness for inhibiting secretion of Insulin, somatostatin taken as the base” value is 100%.
“H-CFF[dW]KFFC-OH (cysteine pairing not given here) [desR1 D-Trp Phe desR4 desR5]”: the “percent effectiveness for inhibiting secretion of Glucagon, somatostatin taken as the base” value in test [1] came to 100%. For the same molecule, the “percent effectiveness for inhibiting secretion of Growth Hormone, somatostatin taken as the base” value in test [2] worked out at 6%. Besides, the “percent effectiveness for inhibiting secretion of Insulin, somatostatin taken as the base” value in test [3] was determined as 80%.
